From paper PMC10514136, “Peptide-conjugated antimiRs improve myotonic dystrophy type 1 phenotypes by promoting endogenous MBNL1 expression” (Molecular Therapy. Nucleic Acids, 2023)

Legend:
Format in all cases: in vivo, mouse
Mbnl2 mRNA = test: Mbnl2 transcript levels in muscle by qRT-PCR; conditions: HSALR mice, 9.2 mg/kg (mean) i.v. every 2 weeks x3, day 45; gastrocnemius, vs PBS-treated HSALR
Protocol: Total RNA from murine gastrocnemius and quadriceps muscle was isolated using the miRNeasy Mini Kit (QIAGEN, Hilden, Germany) according to the manufacturer's instructions. One microgram of RNA was digested with DNase I (Invitrogen, Carlsbad, CA) and reverse transcribed with SuperScript II (Invitrogen) using random hexanucleotides. For subsequent PCR reactions, 20 ng of cDNA was used with GoTaq polymerase (Promega). Specific primers were used to analyze the alternative splicing of Nfix, Atp2a1, and Clcn1 in mouse samples (both muscles). Gapdh levels established the endogenous reference levels using 0.2 ng of cDNA. […] PSR index was defined as value%SI minus X %DSI , divided by […] (SI, splicing inclusion of each sample; DSI, disease splicing inclusion; HSI, healthy splicing inclusion). Overall, PSR indicates the amount in both muscles analyzed. […] Commercial TaqMan probes (QIAGEN) were used for mouse (Mbnl1 and Mbnl2; FAM-labeled probes) and reference (GAPDH; MAX-labeled probe) genes. Results were normalized to Gapdh endogenous gene expression. Expression levels were measured using a QuantStudio 5 Real-Time PCR System (Applied Biosystems, Foster City, CA). […] Mouse handling and experimental procedures followed the European law regarding laboratory animal care and experimentation (2003/65/C.E.) and were approved by Conselleria de Agricultura, […] […]

HSALR mice = test: Electromyography, myotonia grade; conditions: 9.2 mg/kg (mean) i.v. every 2 weeks x3, 5-point scale, quadriceps of both hind limbs
Description: (§1) Mouse handling and experimental procedures followed the European law regarding laboratory animal care and experimentation (2003/65/C.E.) and were approved by Conselleria de Agricultura, […] (reference no. A1539961490857). We used homozygous transgenic HSA^LR (line 20 b) mice,[90] which were kindly provided by Dr Thornton (Rochester, NY) and were housed and bred in our animal facility. […] The mice were randomly allocated to the different treatments as follows: in each cage, each mouse was ear-marked as it was taken out, and each mouse was then assigned to a different treatment. Animals were injected biweekly intravenously with 150 μL of 1× PBS vehicle (controls; […] Mice were sacrificed 45 days after the first injection and the tissues of interest were frozen in liquid nitrogen for the molecular and histological assays. All the mice used in this study ranged from 5 to 5.5 months of age and all were males. Electromyography was performed before the treatment, at the halfway point and time of sacrifice under general anesthesia, as described previously.[18] The determination was performed blindly to eliminate bias.

miR-23b = test: Functional miR-23b levels in gastrocnemius and quadriceps by qRT-PCR; conditions: HSALR mice, 9.2 mg/kg (mean) i.v. every 2 weeks x3, day 45, vs PBS-treated HSALR
Protocol: as §1, with “miRNA expression in muscle tissues was quantified using specific miRCURY-locked nucleic acid microRNA PCR primers (QIAGEN) according to the manufacturer's instructions. […] Expression levels were measured using a QuantStudio 5 Real-Time PCR System (Applied Biosystems, Foster City, CA). […] Mouse” for “Mouse”, “males.” for “males. Electromyography was performed before the treatment, at the halfway point and time of sacrifice under general anesthesia, as described previously.[18] The determination was performed blindly to eliminate bias.”

## 9b2KC-23b (antisense GGUAAUCCCUGGCAAUGUGAU; all phosphorodiamidate morpholino (PMO), T or U not given here; Pip9b2KC peptide conjugated)
Mbnl2 mRNA
  relative expression of Mbnl2: 2.65 fold

## TCTTACCTCAGTTACAATTTA-Pip9b2 [Scramble, reference compound]
HSALR mice
  myotonia (electromyography), change at day 45: myotonia remained unchanged
miR-23b
  levels of functional miR-23b: did not reduce functional levels
